Reference: US12606543B2, “Indole derivatives as serotonergic agents useful for the treatment of disorders related thereto” (priority 2023, dated 2026)

Key:
[1] = Liver microsomes stability, mouse; assay type: in vitro ADME; details: for half-life at 2 μM / microsomal CLint at 2 μM / CLint scaled at 2 μM: male; for CLint scaled at 2 μM: read-out: Scaled-up CLint
Method: The objective of this study was to estimate in vitro metabolic stability of exemplary compounds of Formula (I) or a pharmaceutically acceptable salt, solvate, and/or prodrug thereof in pooled human, male rat, and male mouse liver microsomes. The concentrations of compounds in reaction systems were evaluated by LC-MS/MS for estimating the stability in pooled human, male rat, and male mouse liver microsomes. The in vitro intrinsic clearances of test compounds were determined as well.
A master solution in the “Incubation Plate” containing phosphate buffer, ultra-pure H2O, MgCl2 solution and liver microsomes was made according to Table 33. The mixture was pre-warmed at 37° C. water bath for 5 minutes.
40 μL of 10 mM nicotinamide adenine dinucleotide phosphate (NADPH) solution was added to each well. The final concentration of NADPH was 1 mM. The negative control samples were prepared by replacing NADPH with 40 μL of ultra-pure H2O. Samples were prepared in duplicate. Negative controls were prepared in singlet.
The reaction was started with the addition of 4 μL of 200 μM exemplary test compounds of the disclosure or control compounds to each master solution to get the final concentration of 2 μM. This study was performed in duplicate.
Aliquots of 50 μL were taken from the reaction solution at 0, 15, 30, 45, and 60 minutes. The reaction solutions were stopped by the addition of 4 volumes of cold methanol with IS (100 nM alprazolam, 200 nM imipramine, 200 nM labetalol, and 2 μM ketoprofen). Samples were centrifuged at 3,220 g for 40 minutes. Aliquot of 90 μL of the supernatant was mixed with 90 μL of ultra-pure H2O and then was used for LC-MS/MS analysis.
LC/MS analysis was performed for all samples from this study using a Shimadzu liquid chromatograph separation system equipped with degasser DGU-20A5R; solvent delivery unit LC-30AD; system controller SIL-30AC; column oven CTO-30A; CTC Analytics HTC PAL System. Mass spectrometric analysis was performed using a Triple Quad™ 5500 instrument.
All calculations were carried out using Microsoft Excel. Peak area ratios of test compound to internal standard (listed in the below table) were determined from extracted ion chromatograms.
All calculations were carried out using Microsoft Excel. Peak areas were determined from extracted ion chromatograms. The slope value, k, was determined by linear regression of the natural logarithm of the remaining percentage of the parent drug vs. incubation time curve.
The in vitro half-life (in vitro t1/2) was determined from the slope value:
Conversion of the in vitro t1/2 (min) into the in vitro intrinsic clearance (in vitro CLint, in μL/min/mg proteins) was done using the following equation (mean of duplicate determinations): […]
The objective of this study was to estimate in vitro metabolic stability of exemplary compounds of Formula (I) or a pharmaceutically acceptable salt, solvate and/or prodrug thereof in pooled human, male rat and male mouse liver microsomes. The concentrations of compounds in reaction systems were evaluated by LC-MS/MS for estimating the stability in pooled human, male rat and male mouse liver microsomes. The in vitro intrinsic clearances of test compounds were determined as well.
A master solution in the “Incubation Plate” containing phosphate buffer, ultra-pure H2O, MgCl2 solution and liver microsomes was made according to Table 67. The mixture was pre-warmed at 37° C. water bath for 5 minutes.
40 μL of 10 mM NADPH solution was added to each well. The final concentration of NADPH was 1 mM. The negative control samples were prepared by replacing NADPH with 40 μL of ultra-pure H2O. Samples were prepared in duplicate. Negative controls were prepared in singlet
Aliquots of 50 μL were taken from the reaction solution at 0, 15, 30, 45 and 60 minutes. The reaction solutions were stopped by the addition of 4 volumes of cold methanol with IS (100 nM alprazolam, 200 nM imipramine, 200 nM labetalol and 2 μM ketoprofen). […]

[2] = Plasma protein binding by equilibrium dialysis, mouse; assay type: in vitro ADME; details: for recovery at 6 h, 1 µM: CD-1, mouse, plasma; for fraction unbound at 6 h, 1 μM: CD-1, read-out: % Bound (converted)
Method: The final concentration of compound was 1 μM. The final concentration of DMSO was 0.5%. Ketoconazole was used as positive control in the assay.
The assay was performed in duplicate.
All calculations were carried out using Microsoft Excel. […] The percentages of bound compound were calculated as follows: […]
Ketoconazole was used as positive control in the assay.

[3] = Plasma protein binding by equilibrium dialysis, rat; details: for fraction unbound at 6 h, 1 μM / recovery at 6 h, 1 µM: rat; for fraction unbound at 6 h, 1 μM: plasma
Method: 1. The Frozen Plasma (Stored at −80° C.) was Thawed Immediately in a 37° C. Water Bath.
The working solution of test compounds and control compound was prepared in DMSO at the concentration of 200 μM, and then the working solution was spiked into plasma. The final concentration of compound was 1 μM. The final concentration of DMSO was 0.5%. Ketoconazole was used as positive control in the assay.
The dialysis membranes were soaked in ultrapure water for 60 minutes to separate strips, then in 20% ethanol for 20 minutes, finally in dialysis buffer for 20 minutes.
The dialysis set up was assembled according to the manufacturer's instruction. Each Cell was with 150 μL of plasma sample and dialyzed against equal volume of dialysis buffer (PBS). The assay was performed in duplicate. The dialysis plate was sealed and incubated in an incubator at 37° C. with 5% CO2 at 100 rpm for 6 hours. At the end of incubation, 50 μL of samples from both buffer and plasma chambers were transferred to wells of a 96-well plate.
50 μL of plasma was added to each buffer samples and an equal volume of PBS was supplemented to the collected plasma sample. 400 μL of precipitation buffer acetonitrile containing internal standards (IS, 200 nM labetalol, 100 nM tolbutamide and 100 nM ketoprofen) was added to precipitate protein and release compounds. Samples were vortexed for 2 minutes and centrifuged for 30 minutes at 3,220 g. Aliquot of 50 μL of the supernatant was diluted by 150 μL acetonitrile containing internal standards: ultra-pure H2O=1:1, and the mixture was used for LC-MS/MS analysis.
All calculations were carried out using Microsoft Excel. The concentrations of test compounds in the buffer and plasma chambers were determined from peak area ratios. The percentages of bound compound were calculated as follows: […]
The working solution of test compounds and control compound was prepared in DMSO at the concentration of 200 μM, and then the working solution was spiked into plasma. The final concentration of compound was […]. The final concentration of DMSO was 0.5%. Ketoconazole was used as positive control in the assay.

[4] = pooled liver microsomes, mouse liver microsomes, 2 μM compound, 0.5 mg/mL microsomes
[5] = mouse liver microsomes, With Cofactors, 0 min
[6] = mouse liver microsomes, With Cofactors, 30 min
[7] = mouse liver microsomes, With Cofactors, 60 min
[8] = mouse liver microsomes, Without Cofactors, 0 min
[9] = mouse liver microsomes, Without Cofactors, 30 min
[10] = mouse liver microsomes, Without Cofactors, 60 min
[11] = mouse plasma, equilibrium dialysis, 37° C., 6 hours

Compound	half-life at 2 μM [1, 4]	microsomal CLint at 2 μM [1, 4]	CLint scaled at 2 μM ([1]; mouse liver microsomes)	Predicted hepatic CL ([1]; mouse liver microsomes)	Remaining Percentage [1, 5]	Remaining Percentage [1, 6]	Remaining Percentage [1, 7]	Remaining Percentage [1, 8]	Remaining Percentage [1, 9]	Remaining Percentage [1, 10]	recovery at 6 h, 1 µM [2, 11]	fraction unbound at 6 h, 1 μM [2, 11]	% Remaining @ 6 hours ([2]; mouse plasma, 6 hours)	fraction unbound at 6 h, 1 μM ([3]; SD)	recovery at 6 h, 1 µM ([3]; Sprague-Dawley (SD))	% Remaining @ 6 hours ([3]; rat plasma)	other results
[2H]C([2H])(c1c[nH]c2ccc(OCCCCCN3C(=O)c4ccccc4C3=O)cc12)[C@H]1CCCN1C([2H])([2H])[2H] [(R) I-245, (R)-2-(5-((3-((1-(Methyl-d3)pyrrolidin-2-yl)methyl-d2)-1H-indol-5-yl)oxy)pentyl)isoindoline-1,3-dione]	5.12 min	271 µL/min/mg	1180 mL/min/kg	83.65 mL/min/kg	100.00%	1.72%	0.25%	100.00%	100.00%	93.17%	–	–	–	–	–	–	–
COCCN1CCC[C@@H]1Cc1c[nH]c2ccc(OC)cc12 [(R) I-98, (R)-5-Methoxy-3-((1-(2-methoxyethyl)pyrrolidin-2-yl)methyl)-1H-indole]	14.4 min	96.3 µL/min/mg	421 mL/min/kg	74.16 mL/min/kg	–	100.00%	14.54%	–	100.00%	100.99%	96.4%	0.632	103.70%	0.569	88%	96.55%	–
CSc1ccc2[nH]cc(C[C@H]3CCCN3C)c2c1 [(R) I-1, (R)-3-((1-Methylpyrrolidin-2-yl)methyl)-5-(methylthio)-1H-indole]	–	–	> 1340 mL/min/kg	–	–	–	–	–	–	–	–	–	–	–	–	–	Predicted hepatic CL ([1]; Mouse liver microsomes): >84.35 mL/min/kg; half-life at 2 μM ([1]; Mouse liver microsomes, 2 μM, 0.5 mg/mL, NADPH, <4.51 if % remaining at 30 min below 1%): < 4.51 min; microsomal CLint at 2 μM ([1]; Mouse liver microsomes, 2 μM, 0.5 mg/mL, NADPH, >307.01 if % remaining at 30 min below 1%): > 307 µL/min/mg; Remaining Percentage (%) 0 min [1, 5]: 100.00%; Remaining Percentage (%) 30 min [1, 6]: 0.15%; Remaining Percentage (%) 60 min [1, 7]: 0.23%; Remaining Percentage (%) 0 min [1, 8]: 100.00%; Remaining Percentage (%) 30 min [1, 9]: 98.55%; Remaining Percentage (%) 60 min [1, 10]: 103.02%; recovery at 6 h, 1 µM ([2]; Mouse plasma, 1 μM, equilibrium dialysis 6 hours): 113%; fraction unbound at 6 h, 1 μM ([2]; Mouse plasma, 1 μM, equilibrium dialysis 6 hours, 37° C.): 0.521; % Remaining @ 6 hours ([2]; Mouse plasma, 1 μM, 6 hours, 37° C.): 112.85%; % Remaining @ 6 hours ([3]; Rat plasma, 1 μM, 37° C.): 105.76%; recovery at 6 h, 1 µM ([3]; SD): 103%; fraction unbound at 6 h, 1 μM ([3]; Sprague-Dawley): 0.534
[2H]C([2H])(c1c[nH]c2ccc(OCCCCCN3C(=O)C4CCCCC4C3=O)cc12)[C@H]1CCCN1C([2H])([2H])[2H] (mixture of isomers) [Rac (R) I-248]	< 4.51 min	> 307 µL/min/mg	> 1340 mL/min/kg	>84.35 mL/min/kg	100.00%	0.15%	0.19%	100.00%	99.54%	95.85%	–	–	–	–	–	–	–
[2H]C([2H])(c1c[nH]c2ccc(OCCCCN3C(=O)c4ccccc4C3=O)cc12)[C@H]1CCCN1C([2H])([2H])[2H] [(R) I-244, (R)-2-(4-((3-((1-(Methyl-d3)pyrrolidin-2-yl)methyl-d2)-1H-indol-5-yl)oxy)butyl)isoindoline-1,3-dione]	< 4.51 min	> 307 µL/min/mg	> 1340 mL/min/kg	>84.35 mL/min/kg	100.00%	0.00%	0.00%	100.00%	98.38%	86.59%	84.8%	0.101	94.96%	0.19	86.5%	85.45%	–
